Experimental data reported in paper PMC6789111, “Crossing the blood-brain-barrier with nanoligand drug carriers self-assembled from a phage display peptide” (Nature Communications, 2019).
Peptide text beside a SMILES is read from it. * marks the point of attachment. 5FAM = O=C1OC2(c3ccc(O)cc3Oc3cc(O)ccc32)c2ccc(C(=O)*)cc21

Assays:
hCMEC/D3 cells [1] = assay: Cell uptake by flow cytometry; assay type: cell-based, human; details: 5 µM, 24 h, 37 °C, flow cytometry (Supplementary Fig. 13)
Procedure: Peptide internalisation was measured by flow cytometry (FACS ArrayTM Cell Analysis, Becton, Dickinson and Company, NJ, USA). Cells (1 × 10^5 cm^−2) were seeded on 24-well plates and grown 1 day at 37 °C and 5% CO2 in order to reach 60–70% confluence. The cells were washed 3 times with pre-heated PBS. The uptake studies were initiated by adding 500 µL of 5 µM fluorescence-labelled peptides (diluted in cell medium containing with different serum concentration). Serum concentration in incubation varied from 5 to 20% (v/v). […] A total of 10,000 cells were analysed by flow cytometry.

RAGE = RAGE silencing with siPORT Amine, Western blot; assay type: cell-based, human; details: 28 nM siRNA with siPORT Amine
Procedure: (§1) hCMEC/D3 cells were transfected with anti-TfR siRNA [sense sequence ([NT]) and antisense sequence ([NT])] or anti-RAGE siRNA [sense sequence ([NT]) and antisense sequence [NT]] or control siRNA using siPORT Amine transfection agent, according to the manufacturer' Neofection protocol. Briefly, siPORT Amine transfection reagent (7 μL) was added to serum-free cell medium to a final volume of 100 μL and vortexed. […] The mixture was gently mixed and incubated at room temperature for 20 min. The transfection agent/siRNA complex was added to culture plates containing 2.3 × 10^5 hCMEC/D3 cells in 2.3 mL normal growth medium. The final concentration of siRNA was 28 nM. After 24 h incubation, the medium containing transfection agent/siRNA complex was removed and fresh growth medium was added. After 48 h post transfection, the level of target protein (TfR or RAGE) was determined by Western blotting. […] Uptake was quantified by measuring fluorescence using FACS. Transferrin receptor and RAGE expression level in human cells was determined by Western blot analysis. Briefly, cells were seeded in 75 cm^2-flasks and grown to reach 60-70% confluence. The cells were washed in ice-cold PBS three times and then scraped off the flask and collected by centrifugation. The pelleted cells were lysed for 10 min at room temperature on a shaker (900 rpm) following the ProteoJETTM Mammalian Cell Lysis Reagent protocol. Lysates were spun in a centrifuge at 18,000 × g for 15 min and the supernatant was collected. Equal protein aliquots were resolved by SDS-PAGE, transferred to nitrocellulose membranes using iBot Dry Blotting system (Invitrogen, CA, USA), immunoblotted with primary antibodies (mouse anti-human TfR antibody or rabbit polyclonal to mouse and human RAGE) (1;200 and 1:750, respectively) and detected with HRP-Goat-anti-mouse (or rabbit) IgG (H + L) secondary antibody (1:3000). Tubulin was immunoblotted with mouse anti-human-β-tubulin (1:200) and detected with HRP-Goat-anti-mouse IgG (H + L) secondary antibody (1:3000). These were followed by incubation with Novex® ECL Chemiluminescent Substrate Reagent Kit. The Bands were quantified with ImageJ 1.44p (http://imagej.nih.gov/ij/).

hCMEC/D3 cells [2] = assay: Trypan Blue exclusion test; assay type: cell-based, human; details: after receptor down regulation
TfR [3] = assay: TfR silencing with siPORT Amine, Western blot; assay type: cell-based, human; details: 28 nM siRNA with siPORT Amine
Procedure: as §1

TfR [4] = assay: TfR silencing by peptide/siRNA nano-assemblies, Western blot; assay type: cell-based, human
Procedure: Transferrin receptor and RAGE expression level in human cells was determined by Western blot analysis. Briefly, cells were seeded in 75 cm^2-flasks and grown to reach 60-70% confluence. The cells were washed in ice-cold PBS three times and then scraped off the flask and collected by centrifugation. The pelleted cells were lysed for 10 min at room temperature on a shaker (900 rpm) following the ProteoJETTM Mammalian Cell Lysis Reagent protocol. Lysates were spun in a centrifuge at 18,000 × g for 15 min and the supernatant was collected. Equal protein aliquots were resolved by SDS-PAGE, transferred to nitrocellulose membranes using iBot Dry Blotting system (Invitrogen, CA, USA), immunoblotted with primary antibodies (mouse anti-human TfR antibody or rabbit polyclonal to mouse and human RAGE) (1;200 and 1:750, respectively) and detected with HRP-Goat-anti-mouse (or rabbit) IgG (H + L) secondary antibody (1:3000). Tubulin was immunoblotted with mouse anti-human-β-tubulin (1:200) and detected with HRP-Goat-anti-mouse IgG (H + L) secondary antibody (1:3000). These were followed by incubation with Novex® ECL Chemiluminescent Substrate Reagent Kit. The Bands were quantified with ImageJ 1.44p (http://imagej.nih.gov/ij/). […] Next, the mixtures were diluted with saline to a final peptide concentration 5 μM for TEM studies. […] After 24 h incubation, the medium was replaced by fresh growth medium. After another 48 h of incubation, the level of the target protein was determined by Western blotting. The results were compared with parallel experiments containing nano-assemblies formed from FAM-CGY and an irrelevant siRNA as well as transfection procedures with complexes formed between siRNA and siPORT Amine transfection agent. Cy3-siRNA uptake was quantified by measuring median cell fluorescence using FACS.

claudin-5 = assay: Claudin-5 silencing, Western blot; assay type: cell-based, human; details: siRNA delivered with FAM-CGY (5 µM), 72 h after transfection
Procedure: Peptide/siRNA assemblies were formed by dropwise addition (80–240 nM range) of either Cy3-siRNA or functional anti-TfR siRNA or anti-Claudin-5 siRNA (with the sense and antisense sequences of 5′-[…]tt-3′ and 5′-[…]gc-3′) to 50 µM FAM-CGY in physiological saline and incubated for 30 min. Next, the mixtures were diluted with saline to a final peptide concentration 5 µM for TEM studies. In vitro uptake and silencing experiments were performed in hCMEC/D3 cells. Briefly, peptide/siRNA nano-assemblies (5 µM FAM-CGY and either 8 or 16 or 24 nM functional siRNA, final concentration) were added to 2.3 × 10^5 hCMEC/D3 cells. After 24 h incubation, the medium was replaced by fresh growth medium. After another 48 h of incubation, the level of the target protein was determined by Western blotting. The results were compared with parallel experiments containing nano-assemblies formed from FAM-CGY and an irrelevant siRNA as well as transfection procedures with complexes formed between siRNA and siPORT Amine transfection agent. Cy3-siRNA uptake was quantified by measuring median cell fluorescence using FACS.
Supplementary Fig. 20. […] FAM-CGY (5 µM final concentration)/CLDN5-specific siRNA assemblies effectively down regulates CLDN5 in hCMEC/D3 cells as determined by Western blotting. […] CLDN5 expression was measured 72 h after transfection. […]

IL-6 = assay: ELISA of IL-6 in hippocampus; assay type: in vivo, ICR mice; details: 24 h after i.v. (LPS 24 h); Ave.
Procedure: After 4, 24 and 72 h post injection, mice were sacrificed and perfused with 10 mL 0.9% (w/v) saline at a rate of 2 mL min^−1.
Hippocampus was dissected out, rinsed in ice-cold PBS thoroughly, weighted and immediately frozen in liquid nitrogen. Tissues were cut into small pieces and homogenized in 1 mL ice-cold PBS with a glass homogeniser and sonicated with an ultrasonic cell disrupter to break the cell membranes. Homogenates were centrifuges for 5 min at 5,000 × g and supernatants were assayed immediately for quantitative determination of TNF-α, IL-6, IL-1β, Iba-1 and GFAP by corresponding ELISA kits, respectively in accordance with manufacturer’s instructions.

IL-1β = assay: ELISA of IL-1β in hippocampus; assay type: in vivo, ICR mice; details: 24 h after i.v. (LPS 24 h); Ave.
Iba-1 = assay: ELISA of Iba-1 in hippocampus; assay type: in vivo, ICR mice; details: 24 h after i.v. (LPS 24 h); Ave.
GFAP = assay: ELISA of GFAP in hippocampus; assay type: in vivo, ICR mice; details: 24 h after i.v. (LPS 24 h); Ave.
[5] = Blood count after intravenous injection; assay type: in vivo, ICR mice; details: mean ± s.d., n = 3
Text: Supplementary Table 2. Blood count following intravenous injection of FAM-CGY NLCs in free form and complexed with siRNA
Samples WBC RBC HGB HCT MCV MCH MCHC PLT
WBC: white blood cell; RBC: red blood cell count; HGB: haemoglobin; HCT: haematocrit; MCV: mean corpuscular volume; MCH: mean corpuscular haemoglobin; MCHC: mean corpuscular
significance (*p < 0.05). The results are mean ± s.d. (n = 3 animals per group). The experiment was repeated twice with identical results. The siRNA represent BACE-1-specific siRNA. The
final concentration of the peptide conjugate was 10 µM and that of siRNA was 48 nM, based on blood volume calculation equivalent to 6% of the body weight. LPS = lipopolysaccharide.

[6] = hCMEC/D3, control siRNA = 100.00, replicate 1

## CC[C@H](C)[C@H](NC(=O)[C@H](CC(N)=O)NC(=O)[C@H](Cc1c[nH]cn1)NC(=O)[C@@H](NC(=O)[C@@H]1CCCN1C(=O)[C@H](CCCNC(=N)N)NC(=O)[C@H](Cc1ccc(O)cc1)NC(=O)CNC(=O)c1ccc2c(c1)C(=O)OC21c2ccc(O)cc2Oc2cc(O)ccc21)C(C)C)C(=O)N[C@@H](CCCNC(=N)N)C(=O)NCC(=O)N[C@@H](Cc1c[nH]cn1)C(=O)N[C@@H](Cc1c[nH]c2ccccc12)C(=O)N[C@@H](C)C(=O)N1CCC[C@H]1C(=O)NCC(=O)O [FAM-GYR] (5FAM-GYRPVHNIRGHWAPG-OH)
hCMEC/D3 cells [1]
  cellular uptake in contrast to FAM-CGY: relatively low

## RAGE siRNA: sense 5′-GGUGGAACCGUAACCUGAtt-3′, antisense 5′-UCAGGGUUACGGUUCCACCag-3′ (sense GGUGGAACCGUAACCUGATT; antisense UCAGGGUUACGGUUCCACCAG; chemistry not given here)
RAGE; [6]
  RAGE expression level (%): 54.86%
RAGE; Ave.
  RAGE expression level (%): 53.86%
RAGE; replicate 2
  RAGE expression level (%): 57.89%
RAGE; replicate 3
  RAGE expression level (%): 48.82%
hCMEC/D3 cells [2]
  cell viability: > 95%

## TfR siRNA: sense 5′-GGUCAUCAGGAUUGCCUAAtt-3′, antisense 5′-UUAGGCAAUCCUGAUGACCga-3′ (sense GGUCAUCAGGAUUGCCUAATT; antisense UUAGGCAAUCCUGAUGACCGA; chemistry not given here)
TfR [3]; [6]
  TfR expression level (%): 30.26%
TfR [3]; Ave.
  TfR expression level (%): 34.58%
TfR [3]; replicate 2
  TfR expression level (%): 32.56%
TfR [3]; replicate 3
  TfR expression level (%): 40.91%
TfR [4]; 8 nM siRNA, presumably complexed with 5 µM FAM-CGY, hCMEC/D3, 24 h + 48 h, replicate 1
  TfR expression leve (% of control): 75.56%
TfR [4]; 8 nM siRNA, Ave.
  TfR expression leve (% of control): 70.89%
TfR [4]; 8 nM siRNA, replicate 2
  TfR expression leve (% of control): 65.03%
TfR [4]; 8 nM siRNA, replicate 3
  TfR expression leve (% of control): 72.08%
TfR [4]; 16 nM siRNA, Ave.
  TfR expression leve (% of control): 54.45%
TfR [4]; 24 nM siRNA, presumably siRNA alone, Ave.
  TfR expression leve (% of control): 90.00%
TfR [4]; 24 nM siRNA, presumably with siPORT, Ave.
  TfR expression leve (% of control): 38.58%
hCMEC/D3 cells [2]
  cell viability: > 95%

## claudin-5-specific siRNA: sense 5′-CCUUAACAGACGGAAUGAAtt-3′, antisense 5′-UUCAUUCCGUCUGUUAAGGgc-3′ (sense CCUUAACAGACGGAAUGAATT; antisense UUCAUUCCGUCUGUUAAGGGC; chemistry not given here)
claudin-5
  claudin-5 expression: downregulation of claudin-5

## lipopolysaccharide from Escherichia coli O55:B5 [LPS]
IL-6
  IL-6 in hippocampus (Figure 6f): 9.69
IL-1β
  IL-1β in hippocampus (Figure 6g): 36.79
Iba-1
  Iba-1 in hippocampus (Figure 6h): 1.68
GFAP
  GFAP in hippocampus (Figure 6i): 289.26
[5]; 24 h after i.v. (LPS 200 μg kg−1)
  WBC: 1.49±0.26 (×109)L-1
[5]; 24 h after i.v.
  HCT: 71.90±6.10%
  HGB: 152.25±14.25 gL-1
  MCH: 17.45 ± 0.45 pg
  MCHC: 211.75±2.63 gL-1
  MCV: 82.78 ± 1.23 fL
  PLT: 282.45±28.83 (×109)L-1
  RBC: 8.72±0.61 (×1012)L-1
